# Measured values: BindingDB's records for doi:10.1186/s12858-015-0048-3 (Texas Wesleyan University, 2015)
# Values joined by “and” are separate entries in the source; they are usually repeats but may differ in a detail not shown here. Equal entries are not always repeated.
# Target: T1, Dual specificity protein phosphatase 5 [180-384] (Homo sapiens, UniProt Q16690)
# T1 construct: 180-384
# T1 sequence (Q16690 whole entry): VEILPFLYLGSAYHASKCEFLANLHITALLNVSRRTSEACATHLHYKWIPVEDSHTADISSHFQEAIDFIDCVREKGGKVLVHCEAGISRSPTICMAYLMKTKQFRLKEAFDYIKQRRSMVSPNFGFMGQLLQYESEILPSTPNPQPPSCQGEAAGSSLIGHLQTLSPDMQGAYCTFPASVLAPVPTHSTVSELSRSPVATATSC
# Test: p-NPP Assay
# Conditions: 25 °C
# Method: For the 96-well plate validation assay, sodium orthovanadate (Sigma Aldrich) was utilized as a positive control for inhibition [Swarup et al., Biochem. Biophys. Res. Commun., 107:1104-9] at a final concentration of 10 μM, to completely block DUSP5(WT) enzymatic activity. All plate assays were performed in standard 96-well clearbottom plates (Thermo Scientific Nunc) with a total assay volume of 200 μL, using a SpectraMax M5 Microplate Reader (Molecular Devices). The plate validation assay was performed with replicate columns of positive control wells, negative control wells and blank wells. Blank columns contained only buffer and pNPP. Negative control (uninhibited) contained buffer, pNPP, and DUSP5PD(WT); and, positive control contained the same components,but also contained 10 μM sodium orthovanadate. The plate was then shaken and allowed to equilibrate in the spectrophotometer at 25 °C for 30 min. After incubation, 4 μL of a 50 μM enzyme stock was dispensed into appropriate wells utilizing a single-channel pipette. This produced a final enzyme concentration of1 μM. Before a read was taken, the plate was shaken for five seconds. The initial rate for the DUSP5PD(WT) reaction was linear for approximately 90 min;and, the plate was kept in the spectrophotometer at 25 °C for an additional 80 min after the kinetic read. The endpoint reading was subsequently taken at 90 min after initiation of reaction.
row,IC50,Structure (SMILES)
1,0.044 mM,Cc1ccc(C(=O)Nc2ccc(S(=O)(=O)O)c3cc(S(=O)(=O)O)cc(S(=O)(=O)O)c23)cc1NC(=O)c1cccc(NC(=O)Nc2cccc(C(=O)Nc3cc(C(=O)Nc4ccc(S(=O)(=O)O)c5cc(S(=O)(=O)O)cc(S(=O)(=O)O)c45)ccc3C)c2)c1 [Suramin hexasodium]
2,5.1 mM and 26 mM,O=S(=O)(O)c1ccc2[nH]c3c(S(=O)(=O)O)cc(S(=O)(=O)O)cc3c2c1 [RR505]
3,6.4 mM,"O=S(=O)(O)c1ccc2c(S(=O)(=O)O)cc(S(=O)(=O)O)cc2c1 [naphthalene-1,3,6-trisulfonate(3-)]"
